PubChem BioAssay (NCI)
Where “and” joins values, the source holds several entries; their conditions need not be identical. Equal values may be shown once.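 The compound was tested at five concentrations on cells cultured in 96-well plates, with a 48-hour exposure period. GI50 = concentration required for 50% inhibition of growth. TGI is the concentration that stops growth completely.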

Experiments:
Test in all cases: growth of human tumour cells (NCI), 48 h
[1] = tested on: HL-60(TB) leukemia
[2] = tested on: HOP-92 NSCLC
[3] = tested on: HT29 colon
[4] = tested on: OVCAR-4 ovarian
[5] = tested on: OVCAR-5 ovarian
[6] = tested on: RPMI-8226 leukemia
[7] = tested on: SNB-19 CNS
[8] = tested on: SNB-75 CNS
[9] = tested on: TK-10 renal
[10] = tested on: UO-31 renal

Row | Structure (SMILES) | TGI [1] | TGI [2] | TGI [3] | TGI [4] | TGI [5] | TGI [6] [µM] | TGI [7] | TGI [8] | TGI [9] | TGI [10] | GI50 [1] | GI50 [2] | GI50 [3] | GI50 [4] [µM] | GI50 [5] | GI50 [6] | GI50 [7] | GI50 [8] [µM] | GI50 [9] | GI50 [10]
1 | CC1CC(=O)C(CC(=O)O)C1C(C(=O)C(=O)Nc1c(C#N)cccc1[N+](=O)[O-])[N+](=O)[O-] (stereo unspecified) | > 100 µM | > 100 µM | > 100 µM | > 100 µM | > 100 µM | > 100 | > 100 µM | > 100 µM | > 100 µM | > 100 µM |  |  |  |  |  |  |  |  |  | 
2 | Cc1ccc(NC(=O)C(=O)C2NC(=S)NC2=O)c([N+](=O)[O-])c1 (stereo unspecified) | > 100 µM | > 100 µM | > 100 µM | > 100 µM | > 100 µM | > 100 | > 100 µM | > 100 µM | > 100 µM | > 100 µM |  |  |  |  |  |  |  |  |  | 
3 | COc1cc(C(=O)/C=C/c2c(-c3ccc(F)cc3)nc3ncccn23)cc(OC)c1OC | > 100 µM | 92.9 µM | 6.25 µM | > 100 µM | 7.37 µM | > 100 | 15.5 µM | 9.37 µM | 22.6 µM | > 100 µM | 3.33 µM | 1.77 µM | 2.52 µM | 2.93 | 2.46 µM | 2.56 µM | 3.12 µM | 2.39 | 3.25 µM | 0.73 µM
4 | C=C(C)[C@@H]1CC[C@]2(C(=O)O)CC[C@]3(C)[C@H](CC[C@@H]4[C@@]5(C)C[C@@H](CC#Cc6ccc(Br)cc6)C(=O)C(C)(C)[C@@H]5CC[C@]43C)[C@@H]12 | > 100 µM | 36.4 µM | > 100 µM | > 100 µM | > 100 µM | > 100 | 64.8 µM | 34.6 µM | > 100 µM | > 100 µM | 22.4 µM | 17 µM | 4.83 µM | 4.95 | 94.3 µM | 9.08 µM | 6.19 µM | 13.5 | 23.7 µM | > 100 µM
5 | CC(C)=CC(O)C/C(C)=C/CC/C(C)=C/CCC1(C)C(CCCO)/C(=C(/C)C=O)CCC1(C)O (stereo unspecified) | 43.7 µM | > 100 µM | 70.9 µM | > 100 µM | > 100 µM | 47.2 | > 100 µM | > 100 µM | > 100 µM | > 100 µM |  |  |  |  |  |  |  |  |  | 
6 | O=C(Nc1cccnc1)c1cccc([N+](=O)[O-])c1 | > 100 µM | > 100 µM | > 100 µM | > 100 µM | > 100 µM | > 100 | > 100 µM | > 100 µM | > 100 µM | > 100 µM | > 100 µM | > 100 µM | > 100 µM | > 100 | > 100 µM | > 100 µM | > 100 µM | > 100 | > 100 µM | > 100 µM
7 | C/C=C(\CCC1NCCc2c1[nH]c1ccccc21)[Si](C)(C)C (stereo unspecified) | 13.2 µM and 3.3 µM | 12.3 µM and 8.5 µM | 10.4 µM and 5.03 µM | 12.6 µM and 9.04 µM | 16.6 µM and 8.04 µM |  | 30 µM and 22 µM | 14.8 µM and 16.7 µM | 27.5 µM and 17 µM | 22.5 µM and 10.5 µM | 6.28 µM and 1.51 µM | 5.2 µM and 2.56 µM | 5.46 µM and 2.21 µM |  | 6.34 µM and 2.42 µM | 19.8 µM and 2.36 µM | 15.4 µM and 7.22 µM |  | 14.3 µM and 5.62 µM | 8.47 µM and 3.65 µM
8 | COc1ccc2c(c1)C(=O)/C(=C/c1ccc([N+](=O)[O-])s1)O2 | > 26.1 µM | 1.23 µM | 2.67 µM | 1.14 µM | 3.34 µM | 0.843 | 2 µM | 2.47 µM |  | 0.614 µM | 0.713 µM | 0.23 µM | 0.502 µM | 0.34 | 1.6 µM | 0.26 µM | 0.522 µM | 0.627 | 0.767 µM | 0.232 µM
